Measurements published in patent publication US5792759A, “17-hydroxyiminoalkyl and 17-hydroxyiminomethylalkenyl cyclopentaneperhydrophenanthrene derivatives active on the cardiovascular system, a process for their preparation and pharmaceutical compositions containing the same” (Sigma-Tau Industrie Farmaceutiche Riunite S.p.A., priority 1995, dated 1998).
Read-outs that look alike come from different tables or passages of the source.

Columns and labels:
[1] = target: T1, Na^+, K^+ -ATPase receptor (Canis lupus familiaris, UniProt P50997); experiment: displacement of the specific 3H-oubain binding from the Na+, K+-ATPase receptor; settings: 3H-oubain displacement from purified Na+,K+-ATPase; read-out: Binding ^3 H-oubain displacement -log IC50 (converted)
T1 construct: Na^+, K^+ -ATPase receptor purified according to Jorghensen; from tissue
Source text: (§1) To test the affinity for the receptor site of the Na^+, K^+ -ATPase and the agonist or inhibitory activity on the enzyme, the following tests were used:
a) displacement of the specific ^3 H-oubain binding from the Na^+, K^+ -ATPase receptor purified according to Jorghensen (Jorghensen P., BBA, 1974, 356, 36) and Erdmann (Erdmann E. et al., Arzneim. Forsh, 1984, 34,1314);

[2] = target: T2, purified Na^+, K^+ -ATPase (Canis lupus familiaris, UniProt P50997); experiment: inhibition of the activity of the purified Na+, K+-ATPase (% of hydrolysis of 32P-ATP); type: biochemical
T2 construct: Na^+, K^+ -ATPase receptor purified according to Jorghensen; from tissue
Source text: as §1
b) inhibition of the activity of the purified Na^+, K^+ -ATPase measured as % of hydrolysis of ^32 P-ATP in the presence and in the absence of the tested compound (Doucet A. et al., Am. J. Physiol., 1986, 251, F851).

Na^+, K^+ -ATPase [3] = settings: reported in DE 4,227,626; cited from earlier work
Na^+, K^+ -ATPase [4] = settings: reported in DE 4,227,626; cited from earlier work; remark: listed apart in the source
[5] = purified Na+,K+-ATPase, 32P-ATP hydrolysis, read-out: Inhibitory activity -log IC50 (converted)

| SMILES | IC50 [1] [nM] | IC50 [2] [nM] | affinity for Na^+, K^+ -ATPase (Na^+, K^+ -ATPase [3]) | inhibition of the enzyme Na^+, K^+ -ATPase (Na^+, K^+ -ATPase [4]) | IC50 [2, 5] [nM] |
| --- | --- | --- | --- | --- | --- |
| CN(C)CCO/N=C/C=C/[C@H]1CC[C@H]2[C@@H]3CC=C4C[C@@H](O)CC[C@]4(C)[C@H]3CC[C@]12C [I-h, (E,E)-17β-[3-(2-dimethylaminoethoxyimino)-1-propenyl]-androst-5-en-3β-ol] | 1000 | 5010 | – | – | – |
| CN(C)CCO/N=C/[C@H]1CC[C@H]2[C@@H]3CC=C4C[C@@H](O)CC[C@]4(C)[C@H]3CC[C@]12C [I-f, (E)-17β-[2-dimethylaminoethoxyiminomethyl]-androst-5-en-3β-ol] | 5010 | 79400 | – | – | – |
| C[C@]12CC[C@H]3[C@@H](CC=C4C[C@@H](O)CC[C@@]43C)[C@@H]1CC[C@@H]2/C=N/OCCCN [I-m, (E)-17β-(3-aminopropoxyiminomethyl)-androst-5-en-3β-ol] | 398 | 3980 | – | – | – |
| CC12CCC(O)CC1CCC1C2CCC2(C)C(C=NO)CCC12O (stereo not drawn) [17-hydroxyiminomethyl-5β-androstan-3β-14β-diol] | – | – | good affinity | inhibit the enzyme | – |
| CN(C)CCO/N=C/[C@H]1CC[C@H]2[C@@H]3CC[C@@H]4C[C@@H](OCCN5CCCC5)CC[C@]4(C)[C@H]3CC[C@]12C [I-b, (E)-17β-[2-dimethylaminoethoxyiminomethyl]-3β-[2-(1-pirrolidinyl)ethoxy]-5β-androstane] | 501 | 7940 | – | – | – |
| C[C@]12CC[C@H]3[C@@H](CC=C4C[C@@H](O)CC[C@@]43C)[C@@H]1CC[C@@H]2/C=N/OCCN [I-e, (E)-17β-(2-aminoethoxyiminomethyl)-androst-5-en-3β-ol] | 158 | – | – | – | 2000 |
| C[C@]12CC[C@H]3[C@@H](CC=C4C[C@@H](O)CC[C@@]43C)[C@@H]1CC[C@@H]2C=NOCCCCN (mixture of isomers) [I-n, (EZ)-17β-(4-aminobutoxyiminomethyl)-androst-5-en-3β-ol] | 2000 | – | – | – | 20000 |
| CN(C)CCCO/N=C/C=C/[C@H]1CC[C@H]2[C@@H]3CC=C4C[C@@H](O)CC[C@]4(C)[C@H]3CC[C@]12C [I-i, (E,E)-17β-[3-(3-dimethylaminopropoxyimino)-1-propenyl]-androst-5-en-3β-ol] | 631 | 2510 | – | – | – |
| C[C@]12CC[C@H]3[C@@H](CC=C4C[C@@H](O)CC[C@@]43C)[C@@H]1CC[C@@H]2/C=C/C=N/OCCN [I-g, (E,E)-17β-[3-(2-aminoethoxyimino)-1-propenyl]-androst-5-en-3β-ol] | 251 | – | – | – | 1580 |
| CN(C)CCCON=C[C@H]1CC[C@H]2[C@@H]3CC=C4C[C@@H](O)CC[C@]4(C)[C@H]3CC[C@]12C (mixture of isomers) [I-l, (EZ)-17β-(3-dimethylaminopropoxyiminomethyl)-androst-5-en-3β-ol] | 1260 | 25100 | – | – | – |
